Laboratory results taken from PubChem BioAssay (NCI).
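Cells were grown in 96-well plates and exposed to each compound for 48 hours at five concentrations; endpoints were interpolated linearly between bracketing concentrations, or set to the highest concentration if not reached. TGI marks complete inhibition of growth.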

Assays:
Experiment in all cases: growth of human tumour cells (NCI), 48 h
[1] = test system: SK-MEL-28 melanoma
[2] = test system: LOX IMVI melanoma
[3] = test system: HOP-92 NSCLC
[4] = test system: TK-10 renal
[5] = test system: SF-295 CNS
[6] = test system: NCI-H23 lung
[7] = test system: A549 NSCLC
[8] = test system: RXF 393 renal
[9] = test system: K-562 leukemia
[10] = test system: 786-0 renal
[11] = test system: SF-539 CNS
[12] = test system: XF 498 CNS
[13] = test system: EKVX NSCLC
[14] = test system: UACC-257 melanoma
[15] = test system: OVCAR-3 ovarian
[16] = test system: CCRF-CEM leukemia
[17] = test system: OVCAR-8 ovarian
[18] = test system: IGROV1 ovarian
[19] = test system: NCI-H522 lung
[20] = test system: LXFL 529 NSCLC
[21] = test system: SK-MEL-2 melanoma
[22] = test system: SNB-78 CNS
[23] = test system: M14 melanoma
[24] = test system: DMS 114 small cell lung
[25] = test system: DLD-1 colon
[26] = test system: HOP-62 NSCLC
[27] = test system: CAKI-1 renal
[28] = test system: M19-MEL melanoma
[29] = test system: KM20L2 colon
[30] = test system: RPMI-8226 leukemia
[31] = test system: ACHN renal
[32] = test system: NCI-H460 lung
[33] = test system: OVCAR-4 ovarian
[34] = test system: SF-268 CNS
[35] = test system: SW-620 colon
[36] = test system: SK-MEL-5 melanoma
[37] = test system: HCT-15 colon
[38] = test system: SK-OV-3 ovarian
[39] = test system: NCI-H226 lung
[40] = test system: COLO 205 colon
[41] = test system: KM12 colon
[42] = test system: UACC-62 melanoma
[43] = test system: SNB-75 CNS
[44] = test system: SN12C renal
[45] = test system: HCT-116 colon
[46] = test system: SNB-19 CNS
[47] = test system: UO-31 renal
[48] = test system: MALME-3M melanoma
[49] = test system: U251 CNS
[50] = test system: MOLT-4 leukemia
[51] = test system: OVCAR-5 ovarian
[52] = test system: HT29 colon
[53] = test system: DMS 273 small cell lung
[54] = test system: HOP-18 NSCLC
[55] = test system: A498 renal
[56] = test system: HCC-2998 colon
[57] = test system: HL-60(TB) leukemia
[58] = test system: SR leukemia
[59] = test system: T-47D breast
[60] = test system: BT-549 breast
[61] = test system: MDA-N
[62] = test system: MDA-MB-435
[63] = test system: MCF7 breast
[64] = test system: DU-145 prostate
[65] = test system: HS 578T breast
[66] = test system: NCI/ADR-RES ovarian
[67] = test system: PC-3 prostate
[68] = test system: MDA-MB-231 breast

In the case of `Cn1cc(NC(=O)c2cc(NC(=O)CCCCCCCCCC(=O)Nc3cc(C(=O)Nc4cc(C(=O)NCCC(=N)N)n(C)c4)n(C)c3)cn2C)cc1C(=O)NCCC(=N)N`, the TGI [1] is reported as 62.2 µM, the TGI [2] is reported as 83.5 µM and the TGI [3] is reported as 65.5 µM. For the same molecule, the TGI [4] was 85.9 µM, the TGI [5] was 75 µM and the TGI [6] was > 100 µM. For the same molecule, the TGI [7] was 57.1 µM, the TGI [8] was > 100 µM and the TGI [9] was > 100 µM. For the same molecule, the TGI [10] was 93.3 µM, the TGI [11] was > 100 µM and the TGI [12] was 98.9 µM. The TGI [13] was 83.1 µM, the TGI [14] was > 100 µM and the TGI [15] was 35.1 µM. For the same molecule, the TGI [16] was 69.2 µM, the TGI [17] was 83.1 µM and the TGI [18] was > 100 µM. For the same molecule, the TGI [19] was > 100 µM, the TGI [20] was > 100 µM and the TGI [21] was > 100 µM. The TGI [22] was > 100 µM, the TGI [23] was 70.1 µM and the TGI [24] was > 100 µM. The TGI [25] was > 100 µM, the TGI [26] was 81.3 µM and the TGI [27] was > 100 µM. For the same molecule, the TGI [28] was > 100 µM, the TGI [29] was > 100 µM and the TGI [30] was 54.9 µM. The TGI [31] was 73.3 µM, the TGI [32] was > 100 µM and the TGI [33] was > 100 µM. The TGI [34] was 89.3 µM, the TGI [35] was > 100 µM and the TGI [36] was > 100 µM. The TGI [37] was > 100 µM, the TGI [38] was > 100 µM and the TGI [39] was > 100 µM. The TGI [40] was > 100 µM, the TGI [41] was 31.7 µM and the TGI [42] was > 100 µM. The TGI [43] was 55.4 µM, the TGI [44] was > 100 µM and the TGI [45] was > 100 µM. The TGI [46] was > 100 µM, the TGI [47] was > 100 µM and the TGI [48] was 26.7 µM. The TGI [49] was > 100 µM, the TGI [50] was 82.1 µM and the TGI [51] was 66.4 µM. For the same molecule, the TGI [52] was 46.2 µM, the TGI [53] was > 100 µM and the TGI [54] was 96.1 µM.

With `Cc1ccc(S(=O)(=O)NC2CCCCO2)cc1` (stereo not drawn) the TGI [1] was > 100 µM, the TGI [2] was > 100 µM and the TGI [3] was > 100 µM. For the same molecule, the TGI [55] was > 100 µM, the TGI [6] was > 100 µM and the TGI [7] was > 100 µM. The TGI [8] was > 100 µM, the TGI [9] was > 100 µM and the TGI [10] was > 100 µM. The TGI [11] was > 100 µM, the TGI [12] was > 100 µM and the TGI [13] was > 100 µM. For the same molecule, the TGI [14] was > 100 µM, the TGI [15] was > 100 µM and the TGI [16] was > 100 µM. The TGI [17] was > 100 µM, the TGI [18] was > 100 µM and the TGI [19] was > 100 µM. For the same molecule, the TGI [20] was > 100 µM, the TGI [22] was > 100 µM and the TGI [23] was > 100 µM. For the same molecule, the TGI [24] was > 100 µM, the TGI [25] was > 100 µM and the TGI [26] was > 100 µM. The TGI [27] was > 100 µM, the TGI [28] was > 100 µM and the TGI [29] was > 100 µM. For the same molecule, the TGI [30] was > 100 µM, the TGI [31] was > 100 µM and the TGI [32] was > 100 µM. For the same molecule, the TGI [33] was > 100 µM, the TGI [34] was > 100 µM and the TGI [35] was > 100 µM. For the same molecule, the TGI [36] was > 100 µM, the TGI [37] was > 100 µM and the TGI [38] was > 100 µM. The TGI [39] was > 100 µM, the TGI [40] was > 100 µM and the TGI [41] was > 100 µM. For the same molecule, the TGI [42] was > 100 µM, the TGI [43] was > 100 µM and the TGI [44] was > 100 µM. The TGI [45] was > 100 µM, the TGI [46] was > 100 µM and the TGI [47] was > 100 µM. For the same molecule, the TGI [48] was > 100 µM, the TGI [49] was > 100 µM and the TGI [50] was > 100 µM. The TGI [51] was > 100 µM, the TGI [52] was > 100 µM and the TGI [56] was > 100 µM. For the same molecule, the TGI [53] was > 100 µM and the TGI [54] was > 100 µM.

`CCCC(=O)Nc1ccc(O)c2c1C1CCCCCC21` (stereo not drawn) was tested, and the TGI [1] was > 100 µM, the TGI [2] was > 100 µM and the TGI [4] was > 100 µM. For the same molecule, the TGI [5] was > 100 µM, the TGI [6] was > 100 µM and the TGI [7] was > 100 µM. The TGI [8] was > 100 µM, the TGI [9] was > 100 µM and the TGI [10] was > 100 µM. For the same molecule, the TGI [12] was > 100 µM, the TGI [13] was > 100 µM and the TGI [14] was > 100 µM. For the same molecule, the TGI [16] was > 100 µM, the TGI [17] was > 100 µM and the TGI [19] was > 100 µM. The TGI [20] was > 100 µM, the TGI [21] was > 100 µM and the TGI [22] was > 100 µM. For the same molecule, the TGI [23] was > 100 µM, the TGI [24] was > 100 µM and the TGI [57] was > 100 µM. The TGI [26] was > 100 µM, the TGI [28] was > 100 µM and the TGI [29] was > 100 µM. The TGI [30] was > 100 µM, the TGI [31] was > 100 µM and the TGI [32] was > 100 µM. The TGI [33] was > 100 µM, the TGI [34] was > 100 µM and the TGI [35] was > 100 µM. For the same molecule, the TGI [36] was > 100 µM, the TGI [37] was > 100 µM and the TGI [38] was > 100 µM. For the same molecule, the TGI [39] was > 100 µM, the TGI [40] was > 100 µM and the TGI [41] was > 100 µM. For the same molecule, the TGI [42] was > 100 µM, the TGI [43] was > 100 µM and the TGI [44] was > 100 µM. The TGI [45] was > 100 µM, the TGI [46] was > 100 µM and the TGI [47] was > 100 µM. For the same molecule, the TGI [48] was > 100 µM, the TGI [49] was > 100 µM and the TGI [50] was > 100 µM. For the same molecule, the TGI [52] was > 100 µM, the TGI [58] was > 100 µM and the TGI [53] was > 100 µM. For the same molecule, the TGI [54] was > 100 µM.

`COc1ccc(/C=C2\C(=O)NC(=O)c3ccccc32)cc1OC` was tested, and the TGI [1] was > 100 µM, the TGI [2] was 55.8 µM and the TGI [3] was 39.8 µM. For the same molecule, the TGI [59] was > 100 µM, the TGI [4] was > 100 µM and the TGI [5] was > 100 µM. For the same molecule, the TGI [55] was > 100 µM, the TGI [6] was > 90.5 µM and the TGI [7] was > 100 µM. For the same molecule, the TGI [8] was 33.9 µM, the TGI [60] was > 100 µM and the TGI [9] was > 70.9 µM. The TGI [10] was 44.5 µM, the TGI [11] was 22.9 µM and the TGI [12] was 42.5 µM. For the same molecule, the TGI [13] was > 100 µM, the TGI [14] was > 100 µM and the TGI [15] was > 26.4 µM. The TGI [16] was 21.9 µM, the TGI [61] was > 66.8 µM and the TGI [17] was 42.2 µM. For the same molecule, the TGI [18] was > 83.2 µM, the TGI [19] was 49.6 µM and the TGI [62] was 99.1 µM. For the same molecule, the TGI [63] was > 100 µM, the TGI [21] was > 94.5 µM and the TGI [22] was > 66.2 µM. For the same molecule, the TGI [64] was > 100 µM, the TGI [23] was > 100 µM and the TGI [24] was 18.4 µM. The TGI [25] was 19.2 µM, the TGI [57] was 16.2 µM and the TGI [26] was 58.3 µM. The TGI [27] was > 100 µM, the TGI [28] was > 100 µM and the TGI [29] was > 100 µM. For the same molecule, the TGI [30] was 47.9 µM, the TGI [31] was > 74.7 µM and the TGI [32] was 67.4 µM. The TGI [33] was 62.1 µM, the TGI [34] was > 69.9 µM and the TGI [35] was 46.3 µM. For the same molecule, the TGI [36] was > 94.4 µM, the TGI [37] was > 100 µM and the TGI [38] was 81 µM. The TGI [39] was 99 µM, the TGI [40] was > 100 µM and the TGI [41] was > 100 µM. For the same molecule, the TGI [65] was > 100 µM, the TGI [42] was 78.2 µM and the TGI [43] was > 87.5 µM. For the same molecule, the TGI [66] was > 100 µM, the TGI [44] was > 100 µM and the TGI [45] was 43.1 µM. The TGI [46] was > 93.6 µM, the TGI [47] was 80 µM and the TGI [48] was > 100 µM. The TGI [49] was > 63.5 µM, the TGI [50] was 76.6 µM and the TGI [67] was > 100 µM. For the same molecule, the TGI [51] was > 100 µM, the TGI [52] was > 100 µM and the TGI [58] was 18.9 µM. For the same molecule, the TGI [56] was > 100 µM, the TGI [68] was > 100 µM and the TGI [53] was > 100 µM. The TGI [54] was > 100 µM.
